According to ChEMBL document CHEMBL3885861, “Open TG-GATES”:

Species on record: Rattus norvegicus
Test: Open TG-GATES - Regimen: Daily Repeat
Type: toxicity, organism-based, Sprague-Dawley
Design: regimen Daily Repeat, gender Male, age 6 weeks
Conditions: in vivo, po, 100 mg/kg, route gavage, dose level Low; for APTT / Bas / Eos / Fbg / Hb / Ht / Lym / MCH / MCHC / MCV / Mono / Neu / PT / Plat / RBC / Ret / WBC: tissue Blood; for KIDNEY_L / KIDNEY_R / KIDNEY_TOTAL: tissue Kidney; for LIVER: tissue Liver; for A/G / ALP / ALT / AST / BUN / CRE / Ca / Cl / DBIL / GLC / IP / K / LDH / Na / PL / RALB / TBIL / TC / TG / TP / gamma-GTP: tissue Plasma

CNC(=C[N+](=O)[O-])NCCSCc1ccc(CN(C)C)o1 [RANITIDINE]
TERMINAL_BW (72 h, time 3 day): 232 g | APTT (72 h, time 3 day): 19.5 s | Bas (72 h, time 3 day): 0% | Eos (72 h, time 3 day): 1.4% | Fbg (72 h, time 3 day): 221.4 mg/dL | Hb (72 h, time 3 day): 14 g/dL | Ht (72 h, time 3 day): 40.9% | Lym (72 h, time 3 day): 78.6% | MCH (72 h, time 3 day): 21.7 pg | MCHC (72 h, time 3 day): 34.2% | MCV (72 h, time 3 day): 63.3 fL | Mono (72 h, time 3 day): 2.6% | Neu (72 h, time 3 day): 15.8% | PT (72 h, time 3 day): 11.9 s | Plat (72 h, time 3 day): 129.9 x10_4/uL | RBC (72 h, time 3 day): 646.4 x10_4/ul | Ret (72 h, time 3 day): 5.2% | WBC (72 h, time 3 day): 75.1 x10_2/uL | KIDNEY_L (72 h, time 3 day): 1 g | KIDNEY_R (72 h, time 3 day): 1 g | KIDNEY_TOTAL (72 h, time 3 day): 2 g | LIVER (72 h, time 3 day): 11.2 g | A/G (72 h, time 3 day): 1.6 | ALP (72 h, time 3 day): 970 IU/L | ALT (72 h, time 3 day): 34.6 IU/L | AST (72 h, time 3 day): 63.6 IU/L | BUN (72 h, time 3 day): 15.6 mg/dL | CRE (72 h, time 3 day): 0.4 mg/dL | Ca (72 h, time 3 day): 10.8 mg/dL | Cl (72 h, time 3 day): 103.8 meq/L | DBIL (72 h, time 3 day): 0.086 mg/dL | GLC (72 h, time 3 day): 192.8 mg/dL | IP (72 h, time 3 day): 7.4 mg/dL | K (72 h, time 3 day): 4.1 meq/L | LDH (72 h, time 3 day): 185.2 IU/L | Na (72 h, time 3 day): 141.4 meq/L | PL (72 h, time 3 day): 152.6 mg/dL | RALB (72 h, time 3 day): 3.5 g/dL | TBIL (72 h, time 3 day): 0.1 mg/dL | TC (72 h, time 3 day): 82.2 mg/dL | TG (72 h, time 3 day): 80 mg/dL | TP (72 h, time 3 day): 5.7 g/dL | gamma-GTP (72 h, time 3 day): 1 IU/L | TERMINAL_BW ([…], time 7 day): 264.8 g | TERMINAL_BW ([…], time 14 day): 314.1 g | TERMINAL_BW ([…], time 28 day): 381.6 g | APTT ([…], time 7 day): 19.8 s | Bas ([…], time 7 day): 0% | Eos ([…], time 7 day): 1% | Fbg ([…], time 7 day): 233.2 mg/dL | Hb ([…], time 7 day): 14 g/dL | Ht ([…], time 7 day): 39.9% | Lym ([…], time 7 day): 81.8% | MCH ([…], time 7 day): 21.8 pg | MCHC ([…], time 7 day): 35.2% | MCV ([…], time 7 day): 62.1 fL | Mono ([…], time 7 day): 2.6% | Neu ([…], time 7 day): 13.6% | PT ([…], time 7 day): 12.3 s | Plat ([…], time 7 day): 127.2 x10_4/uL | RBC ([…], time 7 day): 643.2 x10_4/ul | Ret ([…], time 7 day): 5.2% | WBC ([…], time 7 day): 99.9 x10_2/uL | APTT ([…], time 14 day): 19.6 s | Bas ([…], time 14 day): 0% | Eos ([…], time 14 day): 0.8% | Fbg ([…], time 14 day): 243.8 mg/dL | Hb ([…], time 14 day): 14.7 g/dL | Ht ([…], time 14 day): 40.9% | Lym ([…], time 14 day): 78.6% | MCH ([…], time 14 day): 21.7 pg | MCHC ([…], time 14 day): 36% | MCV ([…], time 14 day): 60.4 fL | Mono ([…], time 14 day): 2% | Neu ([…], time 14 day): 16.4% | PT ([…], time 14 day): 11.9 s | Plat ([…], time 14 day): 101 x10_4/uL | RBC ([…], time 14 day): 678 x10_4/ul | Ret ([…], time 14 day): 4% | WBC ([…], time 14 day): 109.6 x10_2/uL | APTT ([…], time 28 day): 20.9 s | Bas ([…], time 28 day): 0.2% | Eos ([…], time 28 day): 1% | Fbg ([…], time 28 day): 228.8 mg/dL | Hb ([…], time 28 day): 15.7 g/dL | Ht ([…], time 28 day): 45.1% | Lym ([…], time 28 day): 82.6% | MCH ([…], time 28 day): 19.8 pg | MCHC ([…], time 28 day): 34.9% | MCV ([…], time 28 day): 56.5 fL | Mono ([…], time 28 day): 1.8% | Neu ([…], time 28 day): 12.8% | PT ([…], time 28 day): 12.2 s | Plat ([…], time 28 day): 103.7 x10_4/uL | RBC ([…], time 28 day): 797.4 x10_4/ul | Ret ([…], time 28 day): 1.8% | WBC ([…], time 28 day): 119.7 x10_2/uL | KIDNEY_L ([…], time 7 day): 1.1 g | KIDNEY_R ([…], time 7 day): 1.1 g | KIDNEY_TOTAL ([…], time 7 day): 2.2 g | KIDNEY_L ([…], time 14 day): 1.2 g | KIDNEY_R ([…], time 14 day): 1.2 g | KIDNEY_TOTAL ([…], time 14 day): 2.4 g | KIDNEY_L ([…], time 28 day): 1.4 g | KIDNEY_R ([…], time 28 day): 1.3 g | KIDNEY_TOTAL ([…], time 28 day): 2.7 g | LIVER ([…], time 7 day): 12.5 g | LIVER ([…], time 14 day): 14.7 g | LIVER ([…], time 28 day): 15.5 g | A/G ([…], time 7 day): 1.5 | ALP ([…], time 7 day): 852.4 IU/L | ALT ([…], time 7 day): 32.4 IU/L | AST ([…], time 7 day): 61.2 IU/L | BUN ([…], time 7 day): 17.8 mg/dL | CRE ([…], time 7 day): 0.4 mg/dL | Ca ([…], time 7 day): 10.8 mg/dL | Cl ([…], time 7 day): 103 meq/L | DBIL ([…], time 7 day): 0.1 mg/dL | GLC ([…], time 7 day): 223.6 mg/dL | IP ([…], time 7 day): 7.9 mg/dL | K ([…], time 7 day): 3.9 meq/L | LDH ([…], time 7 day): 174.4 IU/L | Na ([…], time 7 day): 139.6 meq/L | PL ([…], time 7 day): 149.2 mg/dL | RALB ([…], time 7 day): 3.4 g/dL | TBIL ([…], time 7 day): 0.2 mg/dL | TC ([…], time 7 day): 73.2 mg/dL | TG ([…], time 7 day): 125.4 mg/dL | TP ([…], time 7 day): 5.6 g/dL | gamma-GTP ([…], time 7 day): 1.2 IU/L | A/G ([…], time 14 day): 1.4 | ALP ([…], time 14 day): 793 IU/L | ALT ([…], time 14 day): 35.6 IU/L | AST ([…], time 14 day): 63.2 IU/L | BUN ([…], time 14 day): 16.4 mg/dL | CRE ([…], time 14 day): 0.5 mg/dL | Ca ([…], time 14 day): 10.7 mg/dL | Cl ([…], time 14 day): 103.6 meq/L | DBIL ([…], time 14 day): 0.1 mg/dL | GLC ([…], time 14 day): 190.4 mg/dL | IP ([…], time 14 day): 6.9 mg/dL | K ([…], time 14 day): 3.9 meq/L | LDH ([…], time 14 day): 180 IU/L | Na ([…], time 14 day): 142 meq/L | PL ([…], time 14 day): 159.4 mg/dL | RALB ([…], time 14 day): 3.5 g/dL | TBIL ([…], time 14 day): 0.2 mg/dL | TC ([…], time 14 day): 75.6 mg/dL | TG ([…], time 14 day): 152 mg/dL | TP ([…], time 14 day): 6 g/dL | gamma-GTP ([…], time 14 day): 1.2 IU/L | A/G ([…], time 28 day): 1.3 | ALP ([…], time 28 day): 621.4 IU/L | ALT ([…], time 28 day): 32.8 IU/L | AST ([…], time 28 day): 63.4 IU/L | BUN ([…], time 28 day): 17.2 mg/dL | CRE ([…], time 28 day): 0.5 mg/dL | Ca ([…], time 28 day): 10.3 mg/dL | Cl ([…], time 28 day): 103.2 meq/L | DBIL ([…], time 28 day): 0.094 mg/dL | GLC ([…], time 28 day): 220.2 mg/dL | IP ([…], time 28 day): 6.6 mg/dL | K ([…], time 28 day): 3.6 meq/L | LDH ([…], time 28 day): 164.4 IU/L | Na ([…], time 28 day): 141.4 meq/L | PL ([…], time 28 day): 138.4 mg/dL | RALB ([…], time 28 day): 3.5 g/dL | TBIL ([…], time 28 day): 0.2 mg/dL | TC ([…], time 28 day): 65.2 mg/dL | TG ([…], time 28 day): 107.2 mg/dL | TP ([…], time 28 day): 6.3 g/dL | gamma-GTP ([…], time 28 day): 1.2 IU/L
